By IC50 is commonly meant the midpoint of a concentration-inhibition curve.

SMILES strings stand for the structures.

The source of these data is patent US10238658B2, “1-pyrazolyl-3-(4-((2-anilinopyrimidin-4-yl) oxy) napththalen-1-yl) ureas as p38 MAP kinase inhibitors” (Respivert Limited, priority 2011, dated 2019).

The subject of data set [1] is TNFα. As to the kind of experiment: LPS-stimulated TNFα production in sputum macrophages from COPD. In kind it is cell-based. The following applies: Homo sapiens, Macrophage. The method, then:
Patients with COPD were inhaled with a nebulised solution of 3% (w/v) hypertonic saline using an ultrasonic nebuliser (Devilbiss, Carthage, Mo.) with tidal breathing for 5 min. This procedure was repeated a maximum of three times until enough sputum was obtained. The sputum samples were homogenized and mixed vigorously using a vortex mixer in 0.02% v/v dithiothreitol (DTT) solution. The samples were re-suspended in PBS (40 mL) followed by centrifugation at 1500 rpm at 4° C. for 10 min to obtain sputum cell pellets. The pellets were washed twice with PBS (40 mL). The sputum cells were then re-suspended in macrophage serum-free medium (macrophage-SFM, Life technologies, Paisley, UK; to achieve 2×10^6/well in a 24 well plate) containing 20 U/mL penicillin, 0.02 mg/mL streptomycin and 5 μg/mL amphotericin B and seeded on high bound 96-well plate, followed by incubation for 2 hr at 37° C. and at 5% CO2 to allow the macrophages to attach to the bottom of the plate. The cells on the plate were washed with fresh macrophage-SFM (200 μL/well) to remove neutrophils and other contaminated cells. The adherent cells (mainly sputum macrophages) on the plate were used for further analysis. Sputum induction and isolation were conducted in Quintiles Drug Research Unit at Guys Hospital and ethics approval and written informed consent was obtained by Quintiles.
Where appropriate, 1 μL of a solution containing either the test compound or reference article at the stated concentrations or alternatively 1 μL of DMSO as the vehicle control was added to each well (200 μL in media) and the cells were incubated for 2 hr. […] After washing with 200 uL wash buffer per well, the beads were resuspended in sheath fluid (150 μL) and analyzed immediately. The level of each analyte in the supernatant was calculated using Xcel Fit software with a 4 or 5-parameter equation using each standard curve. The inhibitions of each cytokine production were calculated at each concentration by comparison with vehicle control. The IC50 values were determined from concentration-inhibition curves using XL-Fit (idbs, Guildford, UK)

The test system of data set [2] is CXCL1 (KC). As to the kind of experiment: Cigarette smoke model: CXCL1 (KC) in BALF. The following applies: mice. It counts as in vivo, mouse. The method, then:
A/J mice (males, 5 weeks old) were exposed to cigarette smoke (4% cigarette smoke, diluted with air) for 30 min/day for 11 days using a Tobacco Smoke Inhalation Experiment System for small animals (Model SIS-CS; Sibata Scientific Technology, Tokyo, Japan). Test substances were administered intra-nasally (35 μL of solution in 50% DMSO/PBS) once daily for 3 days after the final cigarette smoke exposure. At 12 hr after the last dosing, each of the animals was anesthetized, the trachea cannulated and bronchoalveolar lavage fluid (BALF) was collected. The numbers of alveolar macrophages and neutrophils were determined by FACS analysis (EPICS® ALTRA II, Beckman Coulter, Inc., Fullerton, Calif., USA) using anti-mouse MOMA2 antibody (macrophage) or anti-mouse 7/4 antibody (neutrophil). BALF was centrifuged and the supernatant was collected. The level of keratinocyte chemoattractant (KC; CXCL1) in BALF was quantitated using a Quentikine® mouse KC ELISA kit (R&D systems, Inc., Minneapolis, Minn., USA).

For data set [3], the system named is IL-8. In words: TNFα-stimulated IL-8 production in primary bronchial epithelial cells from COPD. In kind it is cell-based. The following applies: Homo sapiens, Epithelial cell. How it is done: (§1) Primary airway epithelial cells obtained from patients with COPD were purchased from Asterand (Royston, UK), and maintained in bronchial epithelial cell growth media that was prepared by mixing together LHC8 (lnvitrogen) (500 mL), with LHC9 (Invitrogen) (500 mL) and 3 μL of retinoic acid solution (5 mg/mL in neat DMSO. The media was removed by aspiration and fresh BEGM (200 μL) was added to each well. Where appropriate, 1 μL of a solution of the test compound at the state concentrations or 1 μL of DMSO as the vehicle control was added and the cells were incubated for 2 hr. The cells were stimulated with TNFα (50 μL; final concentration 50 ng/mL) and then incubated for 4 hr at 37° C. and 5% CO2. The supernatant was then collected and kept at −20° C.
(§2) The levels of IL-6 and IL-8 were determined by ELISA using R&D Systems' Human IL-6 and IL-8 Duoset® Elisa Kits. The inhibition of IL-6 and IL-8 production was calculated at each concentration by comparison with vehicle control.

The subject of data set [4] is IL-6. In words: TNFα-stimulated IL-6 production in primary bronchial epithelial cells from COPD. In kind it is cell-based. As to conditions: Homo sapiens, Epithelial cell. How it is done:
as §1, §2

The test system of data set [5] is IL-8. In words: LPS-induced IL-8 release in d-U937 cells. In kind it is cell-based. As to conditions: Homo sapiens, dU937, dU937 cells. A digest of the protocol:
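U937 cells differentiated with PMA (100 ng/mL, 48–72 hr) were pre-incubated with compound for 2 hr, then stimulated with E. coli O111:B4 LPS (0.1 μg/mL) for 4 hr. Supernatant cytokine measured by sandwich ELISA; inhibition vs vehicle control at each concentration, REC50 taken from the concentration-response curve.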

In data set [6] the test system is d-U937 cells. In words: Cell viability: MTT assay. In kind it is cell-based, human. The following applies: 1 μg/mL. How it is done: Differentiated U937 cells were pre-incubated with each test compound (final concentration 1 μg/mL or 10 μg/mL in 200 μL media indicated below) under two protocols: the first for 4 hr in 5% FCS RPMI1640 media and the second in 10% FCS RPMI1640 media for 24 h. The supernatant was replaced with new media (200 μL) and MTT stock solution (10 μL, 5 mg/mL) was added to each well. After incubation for 1 hr the media were removed, DMSO (200 μL) was added to each well and the plates were shaken lightly for 1 hr prior to reading the absorbance at 550 nm. The percentage loss of cell viability was calculated for each well relative to vehicle (0.5% DMSO) treatment. Consequently an apparent increase in cell viability for drug treatment relative to vehicle is tabulated as a negative percentage.
Background: Tetrazolium dyes change colour on reduction, which living cells bring about.

Turning to `Cc1ccc(-n2nc(C(C)(C)C)cc2NC(=O)Nc2ccc(Oc3ccnc(Nc4ccccc4)n3)c3ccccc23)cc1` [Example 1, 1-(3-(tert-Butyl)-1-(p-tolyl)-1H-pyrazol-5-yl)-3-(4-(2-(phenylamino)pyrimidin-4-yloxy)naphthalen-1-yl)urea], the IC50 amounted to 17 nM in data set [1] (COPD patients, LPS); 0.85 nM in data set [3] (COPD patients, TNFα stimulated); 1.7 nM in data set [4] (COPD patients, TNFα stimulated). Further, the Emax at 0.1 µg/mL in data set [1] (read-out: TNFα E max, sputum macrophage) was found to be 86%; in data set [3] (read-out: IL-8 E max, bronchial epithelial cell) it was 100%; in data set [4] (read-out: IL-6 E max, bronchial epithelial cell), 100%. Also, the “cigarette smoke induced CXCL1 (KC) production in BALF, effect in words” value in data set [2] is reported as “inhibited”.
As to `Cc1ccc(-n2nc(C(C)(C)C)cc2NC(=O)Nc2ccc(Oc3ccnc(Nc4cccc(O)c4)n3)c3ccccc23)cc1` [Example 2, 1-(3-(tert-Butyl)-1-(p-tolyl)-1H-pyrazol-5-yl)-3-(4-((2-((3-hydroxyphenyl)amino)pyrimidin-4-yl)oxy)naphthalen-1-yl)urea], the IC50 in data set [5] turned out to be 2.7 nM. Also, the “MTT Assay Cell viability at time point in d-U937 Cells 4 h” value in data set [6] (4 h) was “−ve (−ve and +ve indicate the value is below and above respectively, the no significant effect threshold defined as 30% inhibition at 1 μg/mL at the time point indicated)”. For the same compound, in data set [6] (24 h), the “MTT Assay Cell viability at time point in d-U937 Cells 24 h” value was “−ve (−ve and +ve indicate the value is below and above respectively, the no significant effect threshold defined as 30% inhibition at 1 μg/mL at the time point indicated)”.
